Assay results reported in PMC9693223 (Molecules, 2022).
Read-outs that look alike come from different tables or passages of the source.

Assays:
[1] = test system: L. mexicana Cas9^ΔNT1+TcrNT2 promastigotes; experiment: Alamar blue drug sensitivity assay, L. mexicana Cas9^ΔNT1+TcrNT2 promastigotes; format: cell-based, Leishmania mexicana; conditions: Cas9^ΔNT1+TcrNT2 in comparison to L. mexicana Cas9^ΔNT1
Excerpt: (§1) We used L. mexicana promastigotes of the Cas9 strain developed by Beneke at al. to generate the ΔNT1 strain, and from there the Cas9^ΔNT1+TcrNT2 (see below); The original Cas9 strain was generously donated by Prof. Eva Gluenz (University of Bern, Switzerland). All strains in standard HOMEM (GIBCO, Life Technologies, Paisley, UK) supplemented with 10% heat-inactivated fetal bovine serum (FBS; PAA Laboratories, Linz, Austria) and 1% of a penicillin–streptomycin solution (10,000 U mL^−1 each; Life Technologies) at 25 °C, as described.
(§2) The Alamar blue assay (resazurin sodium salt) was used to determine the drug sensitivity of the L. mexicana promastigotes in vitro. The assay is based on the reduction of resazurin sodium salt (blue and non-fluorescent) to resorufin (pink color and fluorescent) by live cells. HOMEM medium with 10% FBS (100 μL) was added to all wells of a white 96-well plate apart from the first well. 200 μL of a known concentration of test compounds was diluted in HOMEM medium and placed in the first well. Compounds were tested in one plate and every compound was diluted over two rows (23 concentrations), leaving the last well of every dilution as a negative control having 100 μL HOMEM medium. Next, 100 μL of L. mexicana culture at a density of 2 × 10^6 cells mL^−1 was added into every well in the plate and incubated for 72 h at a temperature of 25 °C after which resazurin sodium salt (Sigma) (20 μL of a solution of 12.5 mg in 100 mL PBS) was added and the plate was incubated under the same conditions for a further 48 h. Fluorescence was measured in a FLUOstar OPTIMA plate reader (BMG Labtech, Germany), at a wavelength of 544 nm for excitation and 620 nm for emission. The EC50 values and fluorescence data were determined and plotted by the GraphPad Prism 8 Software using an equation for a sigmoid curve with variable slope. Pentamidine was used as positive control and every experiment was performed 3–4 times independently.

[2] = test system: L. mexicana Cas9^ΔNT1 promastigotes; experiment: Alamar blue drug sensitivity assay, L. mexicana Cas9^ΔNT1 promastigotes; format: cell-based, Leishmania mexicana; conditions: EC50 Cas9^ΔNT1 relative to L. mexicana Cas9
Excerpt: as §1, §2

[3] = test system: L. mexicana Cas9 promastigotes; experiment: Alamar blue drug sensitivity assay, L. mexicana Cas9 promastigotes; format: cell-based, Leishmania mexicana; conditions: Leishmania mexicana, 120 h, 72 h + 48 h resazurin, at least 3 independent determinations, read-out: EC50 (µM) AVG ± SEM, Cas9
Excerpt: as §1, §2

[4] = target: T1, TcrNT2 (Trypanosoma cruzi, UniProt Q4DHG0); conditions: cited from earlier work; for Ki: earlier characterization, TcrNT2 expressed in T. brucei, ref Campagnaro et al. [30], read-out: Ki on thymidine transport by TcrNT2
T1 sequence (Q4DHG0 entry or part of it): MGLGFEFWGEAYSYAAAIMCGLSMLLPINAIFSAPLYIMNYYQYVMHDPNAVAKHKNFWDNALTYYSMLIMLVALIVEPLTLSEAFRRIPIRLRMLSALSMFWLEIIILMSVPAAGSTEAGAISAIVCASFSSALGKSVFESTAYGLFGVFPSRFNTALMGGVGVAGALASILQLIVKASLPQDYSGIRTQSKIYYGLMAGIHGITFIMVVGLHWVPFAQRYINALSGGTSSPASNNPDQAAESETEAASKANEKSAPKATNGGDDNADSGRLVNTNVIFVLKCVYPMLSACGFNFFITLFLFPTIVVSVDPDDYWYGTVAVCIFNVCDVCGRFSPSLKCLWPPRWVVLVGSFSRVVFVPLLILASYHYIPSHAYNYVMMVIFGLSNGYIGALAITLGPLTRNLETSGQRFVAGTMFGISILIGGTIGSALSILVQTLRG

[5] = target: T1, TcrNT2; experiment: Transport of [^3H]-thymidine by TcrNT2 expressed in L. mexicana Cas9^ΔNT1 (Km, inhibition); format: cell-based; conditions: for δ(ΔG°) with respect to ΔG° of thymidine: change in ΔG° relative to thymidine; for δ(ΔG°), pairwise comparison with 2′-deoxyuridine: pairwise comparison vs. 2′-deoxyuridine; for δ(ΔG°), pairwise comparison with uridine: pairwise comparison vs. uridine
Method: These values can be used to calculate the Gibbs free energy of interaction ΔG°, but these experiments cannot distinguish between the test compound being transported or merely binding to the transporter and inhibiting the transit of the [^3H]-thymidine.
Transport assays were conducted with radiolabeled nucleosides [methyl-^3H]-thymidine (20 Ci/mmol; PerkinElmer (Waltham, MA, USA)) and [2,8-^3H]-adenosine (40 Ci/mmol; American Radiolabeled Chemicals (ARC, St-Louis, MO, USA)). Cells were harvested from mid-log phase cultures by centrifugation and washed into an assay buffer (AB) as described, at a density of 1 × 10^8 cells mL^−1. Transport assays were then performed exactly as described previously, using an oil-stop protocol. Briefly, 100 µL of cell suspension (10^7 cells) was mixed with 100 µL of [^3H]-substrate at 2 × final concentration and incubated for a pre-set time prior to the addition of 800 µL of ice-cold AB containing a saturating concentration of unlabeled permeant (usually 1 or 2.5 mM) and immediate centrifugation through an oil layer to separate cells from extracellular radiolabel. The 100 µL of [^3H]-substrate could also contain unlabeled substrate or an inhibitor at 2 × concentration, as appropriate. Next, the microfuge tubes were flash frozen in liquid nitrogen; the tips with the cell pellets cut off and collected in scintillation tubes. Cells were solubilized by incubation in 2% SDS under gentle shaking on a rocking platform prior to the addition of scintillation fluid (Scintilogic U, Lablogic, Sheffield, UK). The tubes stored in the dark overnight before counting in a 300SL Hidex Scintillation Counter (Lablogic).
Michaelis-Menten constants (Km) were calculated by plotting transport rates of [^3H]-substrate against the concentration, using the Michaelis-Menten equation V0 = Vmax([substrate]/([substrate] + Km)) and non-linear regression in GraphPad Prism 8. Inhibition constants (Ki) were calculated using the Cheng-Prusoff equation: Ki = IC50/(1 + (L/Km)), where L represents the radiolabel concentration. The IC50 was obtained by a non-linear regression of the inhibition curve of transport rate versus inhibitor concentration, using an equation for a sigmoid curve with variable slope (GraphPad Prism 8). The Gibbs free energy ΔG° was obtained using the equation ΔG° = −RTln(Ki), in which R is the gas constant and T is the absolute temperature. As discussed previously, these equations apply to competitive rather than non-competitive inhibition. Given that only close analogues of the substrate were used as potential inhibitors and that Hill slopes were consistently close to −1, it is very likely that inhibition was indeed competitive.

[6] = calculated from Km or Ki at 25 °C
[7] = read-out: Ki on the transport of [^3H]-thymidine by TcrNT2
[8] = TcrNT2 in L. mexicana Cas9^ΔNT1, […] [^3H]-thymidine, IC50 converted to Ki (Cheng-Prusoff), read-out: Ki on the transport of [^3H]-thymidine by TcrNT2

| Structure (SMILES) | RF vs. ΔNT1 (resistance factor) [1] | RF vs. Cas9 (resistance factor) [2] | EC50 [3] | other results |
| --- | --- | --- | --- | --- |
| Nc1ncnc2c1c(F)cn2[C@@H]1O[C@H](CO)[C@@H](O)[C@H]1O [FH3167, 7-F-tubercidin] | 41.9 | 40.7 | 0.22 ± 0.09 µM | – |
| Nc1ncnc2c1c(-c1ccc(Cl)c(Cl)c1)cn2[C@@H]1O[C@H](CO)C[C@H]1O [FH8513, 7-(3,4-dichlorophenyl)-3′-deoxytubercidin] | 3 | 0.94 | ~100 µM | – |
| O=c1ccn([C@@H]2O[C@H](CO)[C@@H](O)[C@H]2O)c(=O)[nH]1 [Uridine] | – | – | – | fold lower affinity than thymidine ([4]; TcrNT2 expressed in T. b. brucei, ref [30]): 300 fold; ΔG° (Gibbs free energy of interaction) [5, 6]: -5.14 kcal/mol; δ(ΔG°) with respect to ΔG° of thymidine [5]: -3.85 kcal/mol; δ(ΔG°) with respect to ΔG° of thymidine ([5]; listed as uridine): 3.85 kcal/mol; δ(ΔG°), pairwise comparison with 2′-deoxyuridine [5]: 2.89 kcal/mol; Ki [5, 7]: 172 ± 8 µM |
| Cc1cn([C@H]2CC[C@@H](CO)O2)c(=O)[nH]c1=O [3′-deoxythymidine] | – | – | – | ΔG° (Gibbs free energy of interaction) [5, 6]: -4.76 kcal/mol; δ(ΔG°) with respect to ΔG° of thymidine [5]: -4.21 kcal/mol; Ki [5, 7]: 322 ± 22.6 µM |
| Nc1ncnc2c1c(Br)nn2[C@@H]1O[C@H](CO)[C@@H](O)[C@H]1O [JBMAM021] | 0.97 | 79.9 | 3.8 ± 0.66 µM | – |
| Nc1ncnc2c1c(-c1ccc(Cl)cc1)nn2[C@@H]1O[C@H](CO)[C@@H](O)[C@H]1O [JB602] | – | – | > 500 µM | – |
| Nc1ncnc2c1c(Br)cn2[C@@H]1O[C@H](CO)C[C@H]1O [FH7429-UP] | 2.27 | 1.17 | 8 ± 0.8 µM | – |
| Cc1cn([C@H]2C[C@H](O)[C@@H](C)O2)c(=O)[nH]c1=O [5′-deoxythymidine] | – | – | – | ΔG° (Gibbs free energy of interaction) [5, 6]: -7.72 kcal/mol; δ(ΔG°) with respect to ΔG° of thymidine [5]: -1.26 kcal/mol; Ki [5, 7]: 2.2 ± 0.03 µM |
| Nc1ncnc2c1c(F)cn2[C@@H]1O[C@H](CO)C[C@H]1O [FH8517, 7-F-3′-deoxytubercidin] | 1.28 | 3.93 | 3.18 ± 0.78 µM | – |
| Cc1cn([C@H]2C[C@H](O)[C@@H](CO)O2)c(=S)[nH]c1=O [2-thiothymidine] | – | – | – | Ki [5]: 3.38 ± 0.26 µM; ΔG° (Gibbs free energy of interaction) [5]: -7.46 kcal/mol |
| Cc1cn([C@H]2C[C@H](O)[C@@H](CO)O2)c(=O)[nH]c1=S [4-thiothymidine] | – | – | – | ΔG° (Gibbs free energy of interaction) [5, 6]: -7.58 kcal/mol; Ki [5, 7]: 2.79 ± 0.11 µM |
| O=c1ccn([C@H]2C[C@H](O)[C@@H](CO)O2)c(=O)[nH]1 [2′-deoxyuridine] | – | – | – | Ki [4]: 1.11 ± 0.1 µM; ΔG° (Gibbs free energy of interaction) [5, 6]: -8.03 kcal/mol; δ(ΔG°) with respect to ΔG° of thymidine [5]: -0.954 kcal/mol; Ki [5, 7]: 1.31 ± 0.002 µM |
| Nc1ncnc2c1c(C(F)(F)F)cn2[C@@H]1O[C@H](CO)[C@@H](O)[C@H]1O [FH6367, 7-(trifluoromethyl)-tubercidin] | 1.91 | 1.44 | 1.42 ± 0.177 µM | – |
| C[C@H]1O[C@@H](n2ccc(=O)[nH]c2=O)[C@H](O)[C@@H]1O [5′-deoxyuridine] | – | – | – | δ(ΔG°), pairwise comparison with uridine [5]: -1.05 kcal/mol; Ki [5, 7]: 1020 ± 57 µM |
| O=c1[nH]c(=O)n([C@H]2C[C@H](O)[C@@H](CO)O2)cc1I [5-I-2′-deoxyuridine] | – | – | – | Ki [5, 8]: 0.19 ± 0.04 µM; ΔG° (Gibbs free energy of interaction) [5, 6]: -9.15 kcal/mol; δ(ΔG°), pairwise comparison with 2′-deoxyuridine [5]: 1.14 kcal/mol; δ(ΔG°), pairwise comparison with 2′-deoxyuridine ([5]; listed as 5-I-2′-dUrd): -1.15 kcal/mol |
| C#Cc1cn([C@@H]2O[C@H](CO)[C@@H](O)[C@H]2O)c2ncnc(N)c12 [FH3143] | 3.11 | 7.74 | 0.12 ± 0.021 µM | – |
| C#Cc1cn([C@@H]2O[C@H](CO)C[C@H]2O)c2ncnc(N)c12 [FH8505] | 1.47 | 1.13 | 47.2 ± 1.47 µM | – |
| N=C(N)c1ccc(OCCCCCOc2ccc(C(=N)N)cc2)cc1 [Pentamidine] | 1.11 | 1.43 | 0.87 ± 0.104 µM | – |
| Nc1ncnc2c1c(I)cn2[C@@H]1O[C@H](CO)[C@@H](F)[C@H]1O [JB526, 7-I,3′-F-tubercidin] | 11.6 | ~0.84 | ~100 µM | – |
| Nc1ncnc2c1c(F)cn2[C@@H]1O[C@H](CO)[C@@H](F)[C@H]1O [JB588, 7-F,3′-F-tubercidin] | 2.15 | 17.3 | 0.51 ± 0.093 µM | – |
| Nc1ncnc2c1cnn2[C@@H]1O[C@H](CO)[C@@H](O)[C@H]1O [JBMAM030, aminopurinol riboside] | 0.94 | 39.8 | 7.81 ± 0.9 µM | – |
| Cc1cn([C@@H]2O[C@H](CO)[C@@H](O)[C@H]2O)c(=O)[nH]c1=O [5-Me-uridine, 5-methyluridine] | – | – | – | ΔG° (Gibbs free energy of interaction) [5, 6]: -6.21 kcal/mol; δ(ΔG°) with respect to ΔG° of thymidine [5]: -2.77 kcal/mol; δ(ΔG°) with respect to ΔG° of thymidine ([5]; listed as 5-Me-Urd): 2.77 kcal/mol; δ(ΔG°) with respect to ΔG° of thymidine ([5]; listed as 5-methyluridine): 2.765 kcal/mol; δ(ΔG°), pairwise comparison with uridine [5]: -1.08 kcal/mol; Ki [5, 7]: 28 ± 0.4 µM |
| Cc1ncnc2c1c(-c1ccc(Cl)cc1)cn2[C@@H]1O[C@H](CO)[C@@H](O)[C@H]1O [CL4501] | 2.2 | 0.84 | ~100 µM | – |
| Nc1ncnc2c1c(-c1ccccc1)cn2[C@@H]1O[C@H](CO)C[C@H]1O [FH8480] | – | – | > 500 µM | – |
| Nc1ccn([C@@H]2O[C@H](CO)[C@@H](O)[C@H]2O)c(=O)n1 [cytidine] | – | – | – | Ki [4]: 728 ± 71 µM |
| Nc1ncnc2c1c(I)cn2[C@@H]1O[C@H](CO)[C@@H](O)[C@H]1O [FH3141] | 7.83 | 13.4 | 1.08 ± 0.202 µM | – |
| CNc1ncnc2c1ccn2[C@@H]1O[C@H](CO)[C@@H](O)[C@H]1O [CL5564] | >5.6 | – | > 100 µM | – |
| O=c1[nH]c(=O)n([C@@H]2O[C@H](CO)[C@@H](O)[C@H]2O)cc1Br [5-Br-uridine] | – | – | – | Ki [5, 8]: 30.1 ± 1.8 µM; ΔG° (Gibbs free energy of interaction) [5, 6]: -6.17 kcal/mol; δ(ΔG°) with respect to ΔG° of thymidine [5]: -2.82 kcal/mol; δ(ΔG°), pairwise comparison with uridine [5]: -1.03 kcal/mol |
